Earlier results as cited in patent EP2525785B1, “SUSTAINED RELEASE TABLET FORMULATION CONTAINING ETODOLAC” (Turgut Laclari A.S., priority 2010, dated 2011).

Conditions: below pH 3

solubility: low solubility
Structure (SMILES): CCc1cccc2c3c([nH]c12)C(CC)(CC(=O)O)OCC3 (stereo not shown) [Etodolac, 2-(1,8-diethyl-4,9-dihydro-3H-pyrano[3,4-b]indole-1-il)acetic acid]
